According to ChEMBL document CHEMBL4219215, “Discovery of {4-[4,9-bis(ethyloxy)-1-oxo-1,3-dihydro-2H-benzo[f]isoindol-2-yl]-2-fluorophenyl}acetic acid (GSK726701A), a novel EP4 receptor partial agonist for the treatment of pain” (Bioorg Med Chem Lett, 2018):

Tests used:
Cytochrome P450 1A2 = molecular target: T1, Cytochrome P450 1A2 (Homo sapiens, UniProt P05177); experiment: Inhibition of human recombinant CYP1A2; type: ADME; details: human, recombinant enzyme
T1 sequence (P05177 whole entry): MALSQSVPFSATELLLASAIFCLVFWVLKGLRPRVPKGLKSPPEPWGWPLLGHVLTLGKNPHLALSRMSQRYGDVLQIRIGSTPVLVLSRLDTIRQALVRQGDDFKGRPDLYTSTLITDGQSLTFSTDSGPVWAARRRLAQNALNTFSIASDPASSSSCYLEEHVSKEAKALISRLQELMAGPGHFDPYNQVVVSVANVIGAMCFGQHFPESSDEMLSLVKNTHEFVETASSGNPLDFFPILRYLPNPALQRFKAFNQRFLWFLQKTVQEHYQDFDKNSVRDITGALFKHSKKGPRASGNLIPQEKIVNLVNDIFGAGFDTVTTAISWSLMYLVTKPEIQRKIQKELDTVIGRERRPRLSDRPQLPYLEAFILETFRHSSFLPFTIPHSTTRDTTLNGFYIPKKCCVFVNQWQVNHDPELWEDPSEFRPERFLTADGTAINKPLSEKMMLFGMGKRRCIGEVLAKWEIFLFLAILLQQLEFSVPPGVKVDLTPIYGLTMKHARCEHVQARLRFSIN

Cytochrome P450 2C19 = Cytochrome P450 2C19 (Homo sapiens, UniProt P33261); experiment: Inhibition of human recombinant CYP2C19; type: ADME; details: human, recombinant enzyme
Cytochrome P450 2C9 = Cytochrome P450 2C9 (Homo sapiens, UniProt P11712); experiment: Inhibition of human recombinant CYP2C9; type: ADME; details: human, recombinant enzyme
Cytochrome P450 2D6 = Cytochrome P450 2D6 (Homo sapiens, UniProt P10635); experiment: Inhibition of human recombinant CYP2D6; type: ADME; details: human, recombinant enzyme
Cytochrome P450 3A4 [1] = molecular target: T2, Cytochrome P450 3A4 (Homo sapiens, UniProt P08684); experiment: Inhibition of human recombinant CYP3A4 using DEF substrate; type: ADME; details: human, recombinant enzyme
Cytochrome P450 3A4 [2] = molecular target: T2, Cytochrome P450 3A4; experiment: Inhibition of human recombinant CYP3A4 using 7BQ substrate; type: ADME; details: human, recombinant enzyme
[3] = Half life in rat at 1 mg/kg, po; type: ADME, organism-based; details: in vivo
Rattus norvegicus [4] = experiment: Analgesic activity in orally dosed rat model of Freund's complete adjuvant-induced acute inflammatory pain assessed as reversal of FCA-induced hypersensitivity; type: functional; details: po
[5] = Total drug level in blood of orally dosed rat model of Freund's complete adjuvant-induced acute inflammatory pain assessed as reduction in reversal of hypersensitivity; type: ADME, organism-based; details: in vivo, po, read-out: Drug uptake
Rattus norvegicus [6] = experiment: Analgesic activity in rat model of Freund's complete adjuvant-induced acute inflammatory pain assessed as reversal of FCA-induced hypersensitivity at 3 mg/kg, po relative to untreated control; type: functional
Rattus norvegicus [7] = experiment: Potency index, ratio of ED50 for CCI17474 to ED50 for test compound for analgesic activity in orally dosed rat model of Freund's complete adjuvant-induced acute inflammatory pain assessed as reversal of FCA-induced hypersensitivity; type: functional
Homo sapiens [8] = organism: Homo sapiens; experiment: Selectivity index, ratio of pIC50 for EP1 receptor (unknown origin) to pEC50 for partial agonist activity at human EP4 receptor expressed in HEK293-AEQ17 cells; type: cell-based
Homo sapiens [9] = organism: Homo sapiens; experiment: Selectivity index, ratio of agonist activity at EP2 receptor (unknown origin) to pEC50 for partial agonist activity at human EP4 receptor expressed in HEK293-AEQ17 cells; type: cell-based
Homo sapiens [10] = organism: Homo sapiens; experiment: Selectivity index, ratio of pIC50 for DP1 receptor (unknown origin) to pEC50 for partial agonist activity at human EP4 receptor expressed in HEK293-AEQ17 cells; type: cell-based
Homo sapiens [11] = organism: Homo sapiens; experiment: Selectivity index, ratio of agonist activity at IP receptor (unknown origin) to pEC50 for partial agonist activity at human EP4 receptor expressed in HEK293-AEQ17 cells; type: cell-based
Homo sapiens [12] = organism: Homo sapiens; experiment: Selectivity index, ratio of antagonist activity at IP receptor (unknown origin) to pEC50 for partial agonist activity at human EP4 receptor expressed in HEK293-AEQ17 cells; type: cell-based
[13] = molecular target: Prostaglandin E2 receptor EP4 subtype (Homo sapiens, UniProt P35408); experiment: Partial agonist activity at EP4 receptor in human whole blood assessed as inhibition of LPS-induced TNFalpha production; type: functional
[14] = molecular target: T3, Prostaglandin E2 receptor EP1 subtype (Homo sapiens, UniProt P34995); experiment: Activity at EP1 receptor (unknown origin)
T3 sequence (P34995 whole entry): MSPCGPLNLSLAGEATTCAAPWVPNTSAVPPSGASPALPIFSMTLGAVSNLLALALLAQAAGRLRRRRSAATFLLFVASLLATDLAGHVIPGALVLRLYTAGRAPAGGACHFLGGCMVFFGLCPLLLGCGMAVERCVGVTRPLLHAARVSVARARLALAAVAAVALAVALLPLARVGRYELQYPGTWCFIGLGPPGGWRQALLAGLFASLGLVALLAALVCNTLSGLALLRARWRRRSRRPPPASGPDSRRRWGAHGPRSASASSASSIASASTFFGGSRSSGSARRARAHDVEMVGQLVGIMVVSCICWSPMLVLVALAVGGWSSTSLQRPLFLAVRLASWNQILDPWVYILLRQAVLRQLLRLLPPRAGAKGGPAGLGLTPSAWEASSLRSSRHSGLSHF

[15] = molecular target: T4, Prostaglandin D2 receptor (Homo sapiens, UniProt Q13258); experiment: Activity at DP1 receptor (unknown origin)
T4 sequence (Q13258 whole entry): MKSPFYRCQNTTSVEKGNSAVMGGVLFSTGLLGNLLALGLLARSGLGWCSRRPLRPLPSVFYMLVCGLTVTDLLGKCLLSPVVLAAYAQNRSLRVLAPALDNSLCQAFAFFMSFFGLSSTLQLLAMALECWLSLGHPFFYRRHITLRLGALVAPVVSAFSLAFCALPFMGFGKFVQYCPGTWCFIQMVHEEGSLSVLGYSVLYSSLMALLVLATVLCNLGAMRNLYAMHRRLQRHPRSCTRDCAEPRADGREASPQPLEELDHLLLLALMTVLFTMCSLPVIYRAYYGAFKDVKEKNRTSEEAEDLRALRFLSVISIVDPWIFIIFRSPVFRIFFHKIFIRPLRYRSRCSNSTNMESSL

[16] = molecular target: Prostacyclin receptor (Homo sapiens) (UniProt P43119); experiment: Agonist activity at IP receptor (unknown origin) assessed as induction of receptor activation at 1 uM; type: functional
[17] = molecular target: Prostacyclin receptor (Homo sapiens) (UniProt P43119); experiment: Antagonist activity at IP receptor (unknown origin) assessed as inhibition of receptor activation at 1 uM; type: functional
Cynomolgus monkey = experiment: Blood clearance in orally dosed cynomolgus monkey; type: ADME, organism-based, Macaca fascicularis; details: in vivo, po
[18] = Oral bioavailability in cynomolgus monkey; type: ADME, organism-based, Macaca fascicularis; details: in vivo
[19] = Protein binding in rat plasma; type: ADME, cell-free; details: read-out: PPB (converted)
[20] = Protein binding in dog plasma; type: ADME, cell-free, Canis lupus familiaris; details: read-out: PPB (converted)
Rattus norvegicus [21] = experiment: Analgesic activity in rat model of chronic joint pain dosed twice daily for 5 days; type: functional; details: 120 h
Rattus norvegicus [22] = experiment: Analgesic activity in rat model of chronic constriction injury-induced neuropathic pain assessed as reversal of mechanical allodynia at 3 mg/kg dosed twice daily for 8 days; type: functional, organism-based; details: TDE = time-dependent effect
Rattus norvegicus [23] = experiment: Analgesic activity in rat model of chronic constriction injury-induced neuropathic pain assessed as reversal of mechanical allodynia at 3 mg/kg dosed twice daily for 8 days relative to untreated control; type: functional; details: 192 h

Prostacyclin receptor (Homo sapiens), sequence (P43119 whole entry): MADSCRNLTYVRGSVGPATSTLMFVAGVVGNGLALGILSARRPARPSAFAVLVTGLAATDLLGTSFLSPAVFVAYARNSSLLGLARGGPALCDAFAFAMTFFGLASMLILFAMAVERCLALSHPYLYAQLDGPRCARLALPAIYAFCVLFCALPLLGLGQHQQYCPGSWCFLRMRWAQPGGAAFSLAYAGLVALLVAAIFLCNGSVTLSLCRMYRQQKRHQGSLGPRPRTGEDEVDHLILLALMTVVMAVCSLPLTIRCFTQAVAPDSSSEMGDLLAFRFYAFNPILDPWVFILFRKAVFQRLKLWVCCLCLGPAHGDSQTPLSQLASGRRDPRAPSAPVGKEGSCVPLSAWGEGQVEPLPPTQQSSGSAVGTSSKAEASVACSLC
T2 sequence (P08684 whole entry): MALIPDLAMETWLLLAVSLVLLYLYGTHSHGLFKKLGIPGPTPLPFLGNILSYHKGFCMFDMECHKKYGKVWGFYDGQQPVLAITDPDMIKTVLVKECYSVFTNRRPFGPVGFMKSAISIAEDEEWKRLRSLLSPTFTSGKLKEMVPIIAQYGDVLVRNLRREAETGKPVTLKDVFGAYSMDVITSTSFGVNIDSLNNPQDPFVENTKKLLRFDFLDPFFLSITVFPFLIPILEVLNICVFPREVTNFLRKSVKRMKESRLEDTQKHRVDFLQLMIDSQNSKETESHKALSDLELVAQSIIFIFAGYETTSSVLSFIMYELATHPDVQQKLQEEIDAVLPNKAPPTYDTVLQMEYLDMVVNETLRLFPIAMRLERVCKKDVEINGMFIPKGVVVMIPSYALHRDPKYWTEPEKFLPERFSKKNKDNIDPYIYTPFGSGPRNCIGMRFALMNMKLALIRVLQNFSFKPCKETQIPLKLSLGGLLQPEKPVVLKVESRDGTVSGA
Cytochrome P450 2C9, sequence (P11712 whole entry): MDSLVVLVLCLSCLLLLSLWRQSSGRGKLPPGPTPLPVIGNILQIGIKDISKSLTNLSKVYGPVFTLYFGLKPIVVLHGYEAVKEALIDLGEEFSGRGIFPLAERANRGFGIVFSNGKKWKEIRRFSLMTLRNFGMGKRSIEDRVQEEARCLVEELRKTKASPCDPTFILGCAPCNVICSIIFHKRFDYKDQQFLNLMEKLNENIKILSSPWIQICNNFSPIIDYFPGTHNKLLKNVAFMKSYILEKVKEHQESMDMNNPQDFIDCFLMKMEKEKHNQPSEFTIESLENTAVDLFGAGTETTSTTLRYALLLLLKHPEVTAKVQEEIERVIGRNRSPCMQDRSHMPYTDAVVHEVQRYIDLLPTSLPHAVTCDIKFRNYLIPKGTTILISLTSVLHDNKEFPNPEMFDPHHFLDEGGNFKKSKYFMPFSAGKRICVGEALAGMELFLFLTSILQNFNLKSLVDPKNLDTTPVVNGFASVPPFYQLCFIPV
Cytochrome P450 2C19, sequence (P33261 whole entry): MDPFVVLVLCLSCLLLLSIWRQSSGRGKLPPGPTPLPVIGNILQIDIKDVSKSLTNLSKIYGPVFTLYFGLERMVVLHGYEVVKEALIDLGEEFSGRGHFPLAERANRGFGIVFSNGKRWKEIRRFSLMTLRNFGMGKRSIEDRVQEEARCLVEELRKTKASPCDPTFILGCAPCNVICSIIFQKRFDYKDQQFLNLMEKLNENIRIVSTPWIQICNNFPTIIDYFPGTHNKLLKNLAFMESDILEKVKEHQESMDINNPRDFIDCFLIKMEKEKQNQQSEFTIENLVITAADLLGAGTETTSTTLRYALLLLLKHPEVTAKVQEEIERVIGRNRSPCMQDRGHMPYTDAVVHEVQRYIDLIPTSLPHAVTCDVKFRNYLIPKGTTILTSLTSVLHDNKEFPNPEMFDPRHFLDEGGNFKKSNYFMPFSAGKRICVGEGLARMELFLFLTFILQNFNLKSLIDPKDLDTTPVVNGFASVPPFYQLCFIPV
Prostaglandin E2 receptor EP4 subtype, sequence (P35408 whole entry): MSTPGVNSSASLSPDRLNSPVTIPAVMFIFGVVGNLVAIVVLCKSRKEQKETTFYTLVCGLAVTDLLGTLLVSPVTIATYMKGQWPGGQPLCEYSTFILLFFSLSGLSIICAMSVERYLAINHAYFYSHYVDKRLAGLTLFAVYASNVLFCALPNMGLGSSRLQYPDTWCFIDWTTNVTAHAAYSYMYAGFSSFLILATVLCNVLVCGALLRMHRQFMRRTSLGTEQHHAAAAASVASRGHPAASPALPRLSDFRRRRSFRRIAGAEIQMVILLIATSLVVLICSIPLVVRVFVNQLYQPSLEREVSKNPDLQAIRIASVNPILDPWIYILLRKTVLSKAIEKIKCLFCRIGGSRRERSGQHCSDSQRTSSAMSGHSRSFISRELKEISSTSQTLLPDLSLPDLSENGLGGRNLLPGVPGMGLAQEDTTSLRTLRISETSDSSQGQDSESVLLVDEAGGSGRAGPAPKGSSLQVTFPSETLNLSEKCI
Cytochrome P450 2D6, sequence (P10635 whole entry): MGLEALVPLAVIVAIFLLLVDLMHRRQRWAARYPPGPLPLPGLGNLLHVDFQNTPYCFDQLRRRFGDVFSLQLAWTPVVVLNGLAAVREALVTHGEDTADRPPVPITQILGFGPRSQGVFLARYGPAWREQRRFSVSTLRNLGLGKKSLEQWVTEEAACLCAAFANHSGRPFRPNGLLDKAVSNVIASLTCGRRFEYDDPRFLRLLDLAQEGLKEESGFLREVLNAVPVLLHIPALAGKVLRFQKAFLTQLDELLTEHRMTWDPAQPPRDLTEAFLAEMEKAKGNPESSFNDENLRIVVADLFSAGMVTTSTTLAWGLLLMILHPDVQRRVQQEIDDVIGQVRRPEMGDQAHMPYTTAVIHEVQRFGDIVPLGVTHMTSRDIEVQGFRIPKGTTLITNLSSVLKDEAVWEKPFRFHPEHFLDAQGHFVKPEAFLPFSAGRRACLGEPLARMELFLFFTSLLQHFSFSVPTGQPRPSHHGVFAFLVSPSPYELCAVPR

## CCOc1c2c(c(OCC)c3ccccc13)C(=O)N(c1ccc(CC(=O)O)c(F)c1)C2
Cytochrome P450 1A2
  INH: > 100 µM
Cytochrome P450 2C19
  INH: > 100 µM
Cytochrome P450 2C9
  INH: > 100 µM
Cytochrome P450 2D6
  INH: > 100 µM
Cytochrome P450 3A4 [1]
  INH: > 100 µM
Cytochrome P450 3A4 [2]
  INH: > 100 µM
[3]
  half-life: 6 h
Rattus norvegicus [4]
  ED50: 0.2 to 0.22 mg/kg
[5]
  concentration: 600 nM
Rattus norvegicus [6]
  Activity: 80%
Rattus norvegicus [7]
  Ratio ED50: >10
Homo sapiens [8]
  Selectivity ratio: > 100
Homo sapiens [9]
  Selectivity ratio: > 100
Homo sapiens [10]
  Selectivity ratio: > 100
Homo sapiens [11]
  Selectivity ratio: > 100
Homo sapiens [12]
  Selectivity ratio: > 100
[13]
  EC50: 0.00631 µM
[14]
  IC50: > 10 µM
[15]
  IC50: > 31.6 µM
[16]
  Activity: 11%
[17]
  inhibition: 31%
Cynomolgus monkey
  clearance: 4 mL/min/kg
[18]
  bioavailability: 50%
[19]
  fraction unbound: 0.002
[20]
  fraction unbound: 0.009
Rattus norvegicus [21]
  ED50: 0.23 mg/kg
Rattus norvegicus [22]
  Activity: Tde
Rattus norvegicus [23]
  inhibition in vivo at 3 mg/kg: 100%
